Source: patent publication US5935840A, “Activated recombinant adenovirus proteinases” (priority 1995, dated 1999)
“Also recorded” adds a separate entry of the source. No end group written: not given here.

Legend:
[1] = test system: Ad2 major core protein precursor, pVII; assay: Assay of adenovirus proteinase activity in crude extracts: cleavage of [35S]-methionine-labeled pVII (SDS-PAGE, autoradiography); type: biochemical, adenovirus type 2; details: for Proteinase activity (cleavage of pVII): log phase cells
Description: The expression products of the above-described Ad2 and Ad12 proteinase plasmids were tested for their ability to cleave the Ad2 major core protein precursor, pVII, in crude extracts from adenovirus-infected cells. The extracts were obtained from human cells infected with the temperature-sensitive mutant Ad2 strain, H2ts1, which has a defective proteinase. As described below, adenovirus proteinase activity requires the presence of two cofactors. […] The recombinant proteinases were also characterized by peptide sequence analysis of their amino-termini.
Bacterial extracts were incubated with the radiolabeled substrate (pVII). Samples were removed at different times and analyzed by SDS-PAGE and autoradiography. […] Appearance of the processed VII band and concurrent decrease of the precursor pVII band indicates proteinase activity. Radiolabeled proteins of Ad2 virions were run on the gel to indicate the positions of pVII, VII, and other virion components (lane a). Extracts from Ad2 -infected HeLa cells were assayed as a positive control for proteinase activity (lane b).
Adenovirus proteinase activity was monitored by the cleavage of [^35 S]-methionine-labeled major core precursor (pVII) essentially as described (Bhatti and Weber, Biochem. Biophys. Res. Comm. 81: 973-797, (1978)). The proteinase substrate was prepared from Ad2Ad2tsl-infected HeLa cells grown at 39° C. and labeled with [^35 S]-methionine (200 μCi/plate) from approximately 28 to 30 hours after infection. Labeled cultures were harvested, washed twice in Phosphate Buffered Saline (PBS), resuspended in 1.0 ml of 10 mM sodium phosphate buffer, pH 7.4, per plate, and sonicated for 40 seconds using a water-cooled sonicator horn (Branson Sonic Power Co., Danbury, Conn.). The extract was then centrifuged at 12,000×g for 10 minutes, and the pellet was resuspended in 10 mM phosphate buffer.
Extracts of Ad-infected cells, harvested 40 hours after infection at 37° C. were used as a source of viral proteinase. Harvested cultures were washed twice with PBS, resuspended in 10 mM phosphate buffer, frozen and thawed once, and centrifuged at 12,000×g for 10 minutes. Pellets were resuspended in 1.0 ml phosphate buffer, pH 7.4, per 10^6 infected cells and sonicated 4×10 seconds; samples were stored at -70° C. Bacterial extracts were prepared by lysozyme-EDTAtreatment of cultures harvested 2 hours after IPTG induction.
Assays were performed by mixing equal volumes of [^35 S]-labeled substrate and test extract and incubating at 37° C. At different times, 25 μl samples were removed, mixed with 25 μl of SDS Sample Buffer, heated to 90° C., and analyzed by SDS-polyacrylamide gel electrophoresis and autoradiography as described (Anderson et al., J. Virol. 12: 241-252 (1973).
Recombinant proteinase polypeptides were assayed for proteinase activity by incubating whole-cell extracts of BL21 (DE3), pT7AD23K5/BL21(DE3), and pT7AD23k6/BL21(DE3), prepared as described above, with extracts of [^35 S]-methionine-labeled Ad2 virion precursor polypeptides. Incubation of the labeled extract at 37° C. for up to 20 hours, alone or with an extract prepared from uninfected HeLa cells, produced little change in the pattern of labeled polypeptides.

HEP1DBP = assay: Cleavage of artificial protein substrate HEP1DBP (SDS-polyacrylamide gel electrophoresis); type: biochemical
Source text: Recombinant protein substrates that resemble natural virion precursors, such as pVI, can be produced in E. coli by genetic engineering methods similar to those used for expression of recombinant adenovirus proteinase. The recombinant substrate may have an artificial leader sequence that can be removed by proteinase-mediated cleavage. The leader can be designed to aid in purification of the substrate; thus the recombinant substrate can be produced and purified much more efficiently than natural adenovirus substrates. Recombinant protein substrates also serve as prototypes of potential commercial products, showing that the adenovirus proteinase will remove an artificial leader sequence from a recombinant protein that is not related to any adenovirus protein. The first artificial protein substrate was called HEP1DBP. It consists of a 17 amino acid leader (Met-Ala-Ser-Met-Thr-Gly-His-His-His-His-His-His-Gly-Met-Ser-Gly-Gly-) (SEQ ID NO: 37) attached to the initiating methionine of the 232 amino acid DNA binding protein (DBP), of bacteriophage T7. The T7 DBP is the product of gene 2.5. The recombinant proteinase substrate is produced by induction of a pET expression plasmid called pT7HEP1DBP (also called pT7HIS2) (FIG. 7A and Example 11); the predicted sequence of the expressed substrate is given in Table 1. The leader sequence contains six consecutive histidine residues to permit purification by metal affinity chromatography in a manner analogous to purification of the adenovirus proteinase. Immediately preceding the methionine corresponding to the initiation site of the T7 DBP is the tetra-amino acid element -Met-Ser-Gly-Gly- (SEQ ID NO: 38). This segment corresponds to the proteinase recognition sequence in the adenovirus virion precursor polypeptide pVI. The size of the leader sequence was chosen so that the substrate precursor HEP1DBP, and the predicted major product after cleavage, the T7 DBP, could easily be distinguished by SDS-polyacrylamide gel electrophoresis.
When purified HEP1DBP was incubated with disrupted wild-type adenovirus 2 virions, it was cleaved, as determined from the change in its mobility during SDS-polyacrylamide gel electrophoresis. No cleavage was observed when incubation was with disrupted H2ts1 virions alone.
Plasmid pT7HEP1DBP (5346 bp) is a pET-3 derivative that expresses the […] T7 gene 2.5 protein (a single-stranded DNA binding protein) attached to a 17-amino acid leader sequence (FIG. 19). The 249-amino acid HEP1DBP polypeptide serves as an artificial substrate for the adenovirus EP; the leader peptide, MASMTGHHHHHHGMSGG- (SEQ ID NO: 37), ends with the Ad2 proteinase recognition sequence -MSGG- (SEQ ID NO: 38) [Anderson, C. […]

[2] = molecular target: T1, Ad2 proteinase (rEP protein) (Human adenovirus C serotype 2, UniProt P03252); type: biochemical, human adenovirus type 2; details: for Rate (pmol substrate min^-1) / Stimulation (fold): rate in presence of effector divided by rate in its absence: 8.3 nM rEP protein, 98 nM pVIc peptide; for Rate (pmol substrate min^-1): 1 μM (Leu-Arg-Gly-Gly-NH)2-rhodamine, effector at concentration giving maximal stimulation; for Stimulation (fold): rate in presence of effector divided by rate in its absence: 1 μM substrate; for Effector concentration that gave maximal stimulation of proteinase activity: moles of molecules per liter, 8.3 nM rEP, 98 nM pVIc
T1 construct: Plasmid pT7AD23k6 contains the 204 codons of the Ad2 proteinase reading frame plus a translational termination codon; made in house; host or cells: E. coli BL21(DE3)
Source text: The nature of the proteinase cofactor(s) was pursued with the aid of the second assay, which utilizes the substrate (Leu-Arg-Gly-Gly-NH)2 -rhodamine. The design of this substrate was based on two facts. (1) It was known that the proteinase present in disrupted Ad2 virions would cleave small peptides with sequence similar to that found at natural cleavage sites in adenovirus virion precursors (Webster et al., 1989). (2) Cleavage of either tetra-peptide sequence from the substituted rhodamine substrate produces a very large increase, up to a 3500-fold, in fluorescence. Under conditions where only a small fraction of the rhodamine substrate is cleaved, the increase in fluorescence is proportional to the amount of proteinase present and to the time of incubation. Thus, the fluorescence assay provides a quantitative method for assessing proteinase activity that is more sensitive convenient and rapid than the gel electrophoresis assay.
After determining the identity of the two cofactors, reconstitution of adenovirus proteinase activity in vitro with purified components was accomplished. […] In (a), Assays in 1 ml contained 1.2 nM rEP protein, 11.9 pM Ad2 DNA and the indicated concentrations of pVI-c peptide. The rate of substrate hydrolysis is the rate in the reaction minus the rate with the rEP protein and Ad2 DNA alone which was 0.068 pmol min^-1. In (b), Assays in 1 ml contained 1.2 nM rEP protein, 36 nM pVI-c peptide and the indicated concentrations of Ad2 DNA. The rate of substrate hydrolysis is the rate in the reaction minus the rate with the rEP protein and pVI-c alone which was 2.76 pmol min^-1. The concentration of (Leu-Arg-Gly-Gly-NH)2 -rhodamine was 5 μM, and its rate of hydrolysis to Leu-Arg-Gly-Gly-NH-rhodamine was determined by measuring the increase in fluorescence every 3 minutes for 15 minutes. The pVI-c peptide was assembled in a peptide synthesizer.
Assays were performed in 400 μl of Assay Buffer (50 mM Tris-HCl, pH 7.4, 25 mM NaCl, 10 mM octylglucoside, and 1 mM dithiothreitol). The concentration of the fluorogenic substrate, (Leu-Arg-Gly-Gly-NH)2 -rhodamine was 5 μM. When present, the number of disrupted virus particles was 10^10 and the amount of recombinant proteinase was 0.12 mAU280 nm. […] After 30 minutes at 37° C., a 360 μl aliquot of the reaction was added to 340 μl of Assay Buffer minus octylglucoside, and the increase in fluorescence was measured. The excitation wavelength was 492 nm and the emission wavelength was 523 nm, both with a bandwidth of 5 nm. The change in fluorescence, ΔF, is the magnitude of the fluorescence from the sample minus the magnitude of the fluorescence from an identical solution without enzyme.
DNase-treated disrupted virus was obtained by incubating 2×10^10 disrupted virions in 20 μl containing 0.1M NaAc, pH 5.0, 5 mM MgCl2, and 55 μg/ml DNase I for 4 minutes at 25° C. Then, EDTA to 23 mM and dithiothreitol to 2.3 mM were added, and the reactions were heated at 56° C. for 1 minute to inactivate the DNase.
For the assays shown in FIG. 8, the DNase reactions were diluted by the addition of 380 μl Assay Buffer containing the substrate, the proteinase and either 2×10^10 molecules of Ad2 DNA (+) or no DNA (-). After 30 minutes at 37° C., 360 μl of the reactions were added to 340 μl Assay Buffer minus octylglucoside and the increase in fluorescence was measured. The assays in (B) and (C) were identical to those in (A) except that in (B) H2ts1 virus was added after the DNase was inactivated (i-DNase) and in (C) no Dnase was present. In (D) recombinant proteinase plus 10^10 molecules of Ad2 DNA were preincubated for 10 minutes at 37° C. before adding substrate.
.dagger. All assays contained 8.3 nM rEP protein, 98 nM pVIc peptide, and
1 μM (Leu--Arg--Gly--Gly--NH)2rhodamine. The rate of substrate

T1 sequence (P03252 whole entry): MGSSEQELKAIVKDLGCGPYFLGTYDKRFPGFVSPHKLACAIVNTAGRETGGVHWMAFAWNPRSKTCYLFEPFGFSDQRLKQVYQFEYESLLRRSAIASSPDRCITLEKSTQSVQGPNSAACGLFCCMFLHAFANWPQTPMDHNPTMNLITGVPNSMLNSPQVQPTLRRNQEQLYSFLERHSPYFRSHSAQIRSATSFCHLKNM

Row | Compound | Activity/Conditions ([1]; Induced, log phase) | Proteinase activity (cleavage of pVII) ([1]; extracts of IPTG-induced) | Rate (pmol substrate min^-1) [2] [pmol substrate min^-1] | Stimulation (fold): rate in presence of effector divided by rate in its absence [2] [fold] | Effector concentration that gave maximal stimulation of proteinase activity [2] [nM] | further results
1 | 23K10: recombinant Ad2 proteinase from pT7AD23K10, same reading frame as pT7AD23k6 | Active | active |  |  |  | 
2 | 23K11: Ad2 proteinase variant, E5 QELKAIVK13 deleted, 194 amino acids |  | not active |  |  |  | Proteinase activity (cleavage of pVII) ([1]; either uninduced, stationary or induced): No processing activity was detected; also recorded: No proteinase activity; Activity/Conditions ([1]; no growth conditions printed): Inactive
3 | 23K8: recombinant wild-type Ad2 proteinase from pT7AD23K8 (gene with AflII site) | Active | active |  |  |  | Cleavage of HEP1DBP (HEP1DBP; incubated together with disrupted H2ts1 virions): cleavage was obtained; Cleavage of HEP1DBP (HEP1DBP; incubated with HEP1DBP alone, no added cofactors): no cleavage
4 | N[C@@H](CCC(=O)O)C(=O)O [Glutamic acid] |  |  | 2.3 | < 1.0 | 780 | 
5 | CGYGPKKKRKVGG [peptide similar in character to pVI-c] |  |  |  |  |  | Substitution for the pVI-c peptide as cofactor [2]: did not substitute
6 | H2ts1: ts Ad2 proteinase with P to L mutation in codon 137, expressed from pT7AD23K18 |  |  |  |  |  | Activity/Conditions ([1]; no growth conditions printed): Temperature-; EP activity (HEP1DBP; DEAE flow-through fractions from pT7AD23K18/BL21(DE3) grown at 30° C., in the presence of H2ts1 virions, substrate not stated): No EP activity
7 | N[C@@H](CC(=O)O)C(=O)O [Aspartic acid] |  |  | 2.1 | < 1.0 | 1380 | 
8 | 23K13: Ad2 proteinase variant with GHHHHHHNM at carboxy-terminus | Active | as active as 23k6 |  |  |  | 
9 | Heparin |  |  | 12.9 | 4.7 | 33 | Substitution for Ad2 DNA as cofactor of proteinase activity ([2]; in vitro): substituted for Ad2 DNA
